The nature of data set [1]: Plasma and total brain concentrations at 1 h post single oral administration to female C57BL/6 mice. The class given is in vivo. The following applies: mouse, 10 mg/kg oral gavage; for Kp at 1 h: brain/plasma, read-out: brain to plasma ratio. The procedure: The appropriate amount of test article was dissolved 10% dimethylacetamide (DMA)/90% (20% hydroxypropyl-β-cyclodextrin (HP-B-CD) w/v in water to obtain a final concentration of 1 mg/mL for oral dosing. Sonication, vortex, and homogenization was used as needed. Three female C57BL/6 mice aged 7-9 weeks (20-30 grams) were dosed by oral gavage 10 mg/kg solution of the test article.
Concentrations of test compounds in the plasma and brain samples (use plasma and brain homogenate standard curve for all samples appropriately) were analyzed using LC-MS/MS. Compounds having a brain-to-plasma ratio of greater than 0.2 were considered brain penetrant.

The next data set concerns the target T1, BTK (Homo sapiens, UniProt Q06187).
T1 construct: purchased Cama
Description: Assay to determine activity against BTK. The class given is biochemical. As to conditions: 1 mM ATP, 2 nM BTK, 90 minutes at room temperature. Put shortly: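 Recombinant BTK (2 nM) was assayed with 1.5 µM FL-peptide and 1 mM ATP in pH 7.5 HEPES buffer with MgCl2, DTT, BSA and EGTA, for 90 min at room temperature before an EDTA stop. Peptide conversion ratio was read by mobility-shift, and IC50 came from 11-point 3-fold dilution curves.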

A further data set relates to BTK in RAMOS B cells. Put plainly: Assay to determine BTK activity in RAMOS B cells (anti-IgM, FLIPR Calcium 6). The class given is cell-based. As to conditions: anti-IgM EC80, calcium readout.
Setting [2] is: plasma, read-out: Mean [plasma].

Data on 26 compounds can be found in patent US20220009920A1 (GB005, Inc., priority 2020, published 2022).

Like-named read-outs stand apart in the source and are kept apart here.

T1 sequence (Q06187 whole entry): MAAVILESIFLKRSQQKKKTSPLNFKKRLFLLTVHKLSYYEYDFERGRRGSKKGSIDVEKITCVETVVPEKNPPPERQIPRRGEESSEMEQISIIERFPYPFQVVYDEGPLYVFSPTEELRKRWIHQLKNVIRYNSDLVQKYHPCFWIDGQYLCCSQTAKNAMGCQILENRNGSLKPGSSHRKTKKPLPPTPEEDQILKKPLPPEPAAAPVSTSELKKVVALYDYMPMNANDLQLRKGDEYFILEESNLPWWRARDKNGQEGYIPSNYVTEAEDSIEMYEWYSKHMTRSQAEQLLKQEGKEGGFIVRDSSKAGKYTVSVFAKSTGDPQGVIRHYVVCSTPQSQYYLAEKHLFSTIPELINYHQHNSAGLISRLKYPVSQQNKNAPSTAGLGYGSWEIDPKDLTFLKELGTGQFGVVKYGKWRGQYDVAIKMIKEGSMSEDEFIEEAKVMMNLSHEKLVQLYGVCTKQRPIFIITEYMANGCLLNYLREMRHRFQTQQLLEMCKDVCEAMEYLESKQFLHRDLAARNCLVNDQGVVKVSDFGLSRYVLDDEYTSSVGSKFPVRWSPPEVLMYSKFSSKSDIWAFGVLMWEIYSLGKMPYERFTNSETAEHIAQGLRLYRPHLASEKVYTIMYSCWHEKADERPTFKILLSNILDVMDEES

As for `C=CC(=O)N1CCC(CNc2ncnc(N)c2-c2ccc(Oc3ccccc3)cc2)CC1` [Evobrutinib, reference compound], the concentration at 1 h in data set [1] (brain, read-out: Mean [brain]) was determined as 11 ng/g; in data set [1] (setting [2]), 177 ng/mL. Further, the Kp at 1 h in data set [1] was 0.06.
Consider `C=CC(=O)N1CCC[C@@H](n2nc(-c3ccc(Oc4ccccc4)cc3)c3c(N)ncnc32)C1` [Ibrutinib, reference compound], for which the concentration at 1 h in data set [1] (brain, read-out: Mean [brain]) was 15 ng/g; in data set [1] (setting [2]), 306 ng/mL. Besides, the Kp at 1 h in data set [1] came out at 0.001.
The corresponding values for `CC#CC(=O)N[C@H]1CCCN(c2c(F)cc(C(N)=O)c3[nH]c(C)c(C)c23)C1` [Branebrutinib, reference compound] are 15 ng/g, 6820 ng/mL and 0.002.
For orientation: IC50 means the point on the concentration scale where inhibition reaches its midpoint. On to `C=CC(=O)N1CCC=C(c2ccc(C(N)=O)c3[nH]c4c(c23)CC2(CC4)OCCO2)C1` [Compound 6-1, 4′-(1-prop-2-enoyl-3,6-dihydro-2H-pyridin-5-yl)spiro[1,3-dioxolane-2,6′-5,7,8,9-tetrahydrocarbazole]-1′-carboxamide], for which the half-inhibitory concentration (IC50) lay within 10 to 100 nM at BTK and 10 to 100 nM in the data set with BTK in RAMOS B cells (Homo sapiens, Ramos).
As for `C=CC(=O)N1CCCC(c2c(F)cc(C(N)=O)c3[nH]c4c(c23)CCCCC4)C1` (single isomer, unassigned) [Compound 5-7], the IC50 against BTK and with BTK in RAMOS B cells was at least 100 nM in each case.
For `C=CC(=O)N1CCc2c(-c3c(F)cc(C(N)=O)c4[nH]c5c(c34)CC3(CC5)CC3)cccc2[C@@H]1C` (atropisomer, axis not shown) [Compound 7-21, (R)-5-((S)-2-acryloyl-1-methyl-1,2,3,4-tetrahydroisoquinolin-5-yl)-6-fluoro-1,2,4,9-tetrahydrospiro[carbazole-3,1′-cyclopropane]-8-carboxamide], the half-maximal inhibitory concentration (IC50) is below 10 nM against BTK and 10 to 100 nM in the data set with BTK in RAMOS B cells (Homo sapiens, Ramos).
The corresponding values for `C=CC(=O)N1CCc2c(cccc2-c2c(F)cc(C(N)=O)c3[nH]c4c(c23)CC2(CCC2)CC4)C1` [Compound 7-13, 5-(2-acryloyl-1,2,3,4-tetrahydroisoquinolin-5-yl)-6-fluoro-1,2,4,9-tetrahydrospiro[carbazole-3,1′-cyclobutane]-8-carboxamide] are 10 to 100 nM and at least 100 nM.
The corresponding values for `C=CC(=O)N1CCc2c(cccc2-c2ccc(C(N)=O)c3[nH]c4c(c23)CC2(CCC2)CC4)C1` [Compound 7-4, 5-(2-acryloyl-1,2,3,4-tetrahydroisoquinolin-5-yl)-1,2,4,9-tetrahydrospiro[carbazole-3,1′-cyclobutane]-8-carboxamide] are at least 100 nM and at least 100 nM.
Take `C=CC(=O)N1CCc2c(cccc2-c2c(F)cc(C(N)=O)c3[nH]c4c(c23)CS(=O)(=O)CC4)C1` (single isomer, unassigned) [Compound 9-3, 9-(2-acryloyl-1,2,3,4-tetrahydroisoquinolin-5-yl)-8-fluoro-1,3,4,5-tetrahydrothiopyrano[4,3-b]indole-6-carboxamide 2,2-dioxide]: the IC50 on BTK is below 10 nM; in the data set on BTK in RAMOS B cells, 10 to 100 nM.
In the case of `C=CC(=O)N1CCC=C(c2ccc(C(N)=O)c3[nH]c4c(c23)CC2(CCC2)CC4)C1` [Compound 7-3, 5-(1-acryloyl-1,2,5,6-tetrahydropyridin-3-yl)-1,2,4,9-tetrahydrospiro[carbazole-3,1′-cyclobutane]-8-carboxamide], the IC50 at BTK was at least 100 nM; in the data set with BTK in RAMOS B cells (Homo sapiens, Ramos) it was at least 100 nM.
On to `CC#CC(=O)N[C@H]1CCCC(c2c(F)cc(C(N)=O)c3[nH]c4c(c23)CCC4)C1` (single isomer, unassigned) [Compound 10-5], for which the IC50 at BTK and in the data set with BTK in RAMOS B cells was below 10 nM throughout.
For the compound `C=CC(=O)N1CCC=C(c2cnc(C(N)=O)c3[nH]c4c(c23)CC(F)(F)CC4)C1` [Compound 2-9, 4-(1-acryloyl-1,2,5,6-tetrahydropyridin-3-yl)-6,6-difluoro-6,7,8,9-tetrahydro-5H-pyrido[3,4-b]indole-1-carboxamide], the half-maximal inhibitory concentration (IC50) at BTK lay in the range of 10 to 100 nM; with BTK in RAMOS B cells (Homo sapiens, Ramos) it was 10 to 100 nM.
As to `C=CC(=O)N1CCc2c(cccc2-c2c(F)cc(C(N)=O)c3[nH]c4c(c23)CC2(CCCO2)CC4)C1` (centres unmarked) [Compound 7-16, 5-(2-acryloyl-1,2,3,4-tetrahydroisoquinolin-5-yl)-6-fluoro-1,2,4,4′,5′,9-hexahydro-3′H-spiro[carbazole-3,2′-furan]-8-carboxamide], the concentration for half-maximal inhibition (IC50) on BTK is below 10 nM; with BTK in RAMOS B cells it was 10 to 100 nM.
Regarding `C=CC(=O)N1CCC=C(c2ccc(C(N)=O)c3[nH]c4c(c23)CC2(CCCC2)CC4)C1` [Compound 7-5, 5-(1-acryloyl-1,2,5,6-tetrahydropyridin-3-yl)-1,2,4,9-tetrahydrospiro[carbazole-3,1′-cyclopentane]-8-carboxamide], the IC50 on BTK is 10 to 100 nM; in the data set on BTK in RAMOS B cells (Homo sapiens, Ramos) it was 10 to 100 nM.
`CC#CC(=O)N[C@H]1CCCN(c2c(F)cc(C(N)=O)c3[nH]c4c(c23)CCCCC4)C1` [Compound 4-1, (S)-1-(3-(but-2-ynamido)piperidin-1-yl)-2-fluoro-5,6,7,8,9,10-hexahydrocyclohepta[b]indole-4-carboxamide]: the concentration for half-maximal inhibition (IC50) at BTK was in the range of 10 to 100 nM; in the data set with BTK in RAMOS B cells (Homo sapiens, Ramos), 10 to 100 nM.
`CC#CC(=O)N[C@@H]1C=C(c2c(F)cc(C(N)=O)c3[nH]c4c(c23)CCCCC4)CCC1` [Compound 5-9, 1-[(3S)-3-(but-2-ynoylamino)cyclohexen-1-yl]-2-fluoro-5,6,7,8,9,10-hexahydrocyclohepta[b]indole-4-carboxamide]: the IC50 on BTK lay within 10 to 100 nM; in the data set on BTK in RAMOS B cells (Homo sapiens, Ramos), 10 to 100 nM.
Turning to `C=CC(=O)N1CCc2c(-c3c(F)cc(C(N)=O)c4[nH]c5c(c34)CC3(CC5)CC3)cccc2[C@@H]1C` (atropisomer, axis not shown) [Compound 7-20, 5-((S)-2-acryloyl-1-methyl-1,2,3,4-tetrahydroisoquinolin-5-yl)-6-fluoro-1,2,4,9-tetrahydrospiro[carbazole-3,1′-cyclopropane]-8-carboxamide], the 50% inhibitory concentration (IC50) was at least 100 nM on BTK and at least 100 nM in the data set on BTK in RAMOS B cells (Homo sapiens, Ramos).
In the case of `C=CC(=O)N1CCC=C(c2c(F)cc(C(N)=O)c3[nH]c4c(c23)CC2(CC4)CC2)C1` [Compound 7-11, 5-(1-acryloyl-1,2,5,6-tetrahydropyridin-3-yl)-6-fluoro-1,2,4,9-tetrahydrospiro[carbazole-3,1′-cyclopropane]-8-carboxamide], the IC50 on BTK is below 10 nM; with BTK in RAMOS B cells (Homo sapiens, Ramos) it was below 10 nM.
In the case of `CC#CC(=O)N1CCC[C@H]1c1nc(-c2ccc(C(=O)Nc3ccccn3)cc2)c2c(N)nccn12` [Acalabrutinib, reference compound], the concentration at 1 h stood at 4 ng/g in data set [1] (brain, read-out: Mean [brain]) and 120 ng/mL in data set [1] (setting [2]). In addition, in data set [1], the Kp at 1 h stood at 0.04.
For the compound `CC#CC(=O)N[C@H]1CCC=C(c2c(F)cc(C(N)=O)c3[nH]c4c(c23)CCC4)C1` [Compound 10-4, 8-[(5S)-5-(but-2-ynoylamino)cyclohexen-1-yl]-7-fluoro-1,2,3,4-tetrahydrocyclopenta[b]indole-5-carboxamide], the IC50 against BTK is below 10 nM; in the data set on BTK in RAMOS B cells (Homo sapiens, Ramos) it was below 10 nM.
Take `C=CC(=O)N1CCc2c(cccc2-c2c(F)cc(C(N)=O)c3[nH]c4c(c23)CCN(C)CC4)C1` [Compound 9-6, 10-(2-acryloyl-1,2,3,4-tetrahydroisoquinolin-5-yl)-9-fluoro-3-methyl-1,2,3,4,5,6-hexahydroazepino[4,5-b]indole-7-carboxamide]: the IC50 fell in the range of 10 to 100 nM against BTK and 10 to 100 nM with BTK in RAMOS B cells (Homo sapiens, Ramos).
In the case of `CC#CC(=O)N[C@H]1C[C@@H](F)CN(c2c(F)cc(C(N)=O)c3[nH]c4c(c23)CCC4)C1` [Compound 10-9, 8-((3S,5R)-3-(but-2-ynamido)-5-fluoro-piperidin-1-yl)-7-fluoro-1,2,3,4-tetrahydrocyclopenta[b]indole-5-carboxamide], the half-inhibitory concentration (IC50) on BTK fell in the range of 10 to 100 nM; in the data set with BTK in RAMOS B cells (Homo sapiens, Ramos), 10 to 100 nM.
For the compound `C=CC(=O)N1CCc2c(cccc2-c2c(F)cc(C(N)=O)c3[nH]c4c(c23)C[S+]([O-])CC4)C1` (single isomer, unassigned) [Compound 9-2, 9-(2-acryloyl-1,2,3,4-tetrahydroisoquinolin-5-yl)-8-fluoro-1,3,4,5-tetrahydrothiopyrano[4,3-b]indole-6-carboxamide 2-oxide], the IC50 at BTK is 10 to 100 nM; in the data set with BTK in RAMOS B cells, at least 100 nM.
On to `C=CC(=O)N1CCc2c(cccc2-c2c(F)cc(C(N)=O)c3[nH]c4c(c23)C[S+]([O-])CC4)C1` (single isomer, unassigned) [Compound 9-1, 9-(2-acryloyl-1,2,3,4-tetrahydroisoquinolin-5-yl)-8-fluoro-1,3,4,5-tetrahydrothiopyrano[4,3-b]indole-6-carboxamide 2-oxide], for which the half-inhibitory concentration (IC50) at BTK is below 10 nM; in the data set with BTK in RAMOS B cells (Homo sapiens, Ramos) it was at least 100 nM.
In the case of `C=CC(=O)N1CCc2c(cccc2-c2ncc(C(N)=O)c3[nH]c4c(c23)CCCC4)C1` [Compound 3-1, 1-(2-acryloyl-1,2,3,4-tetrahydroisoquinolin-5-yl)-6,7,8,9-tetrahydro-5H-pyrido[4,3-b]indole-4-carboxamide], the IC50 against BTK was below 10 nM; in the data set with BTK in RAMOS B cells (Homo sapiens, Ramos), below 10 nM.
`C=CC(=O)N1CCC[C@H](c2c(F)cc(C(N)=O)c3[nH]c4c(c23)CCC4)C1` [Compound 10-1, (R)-8-(1-acryloylpiperidin-3-yl)-7-fluoro-1,2,3,4-tetrahydrocyclopenta[b]-indole-5-carboxamide]: the half-maximal inhibitory concentration (IC50) was below 10 nM on BTK and below 10 nM with BTK in RAMOS B cells (Homo sapiens, Ramos).
